Results as given in patent publication US11584744B2 (UNIVERSITY OF WASHINGTON, priority 2017, dated 2023).
Converted amounts (≈) assume the structure as drawn. “And” between values parts separate entries of the source, which are not always exact repeats. Equal values may be shown once. Read-outs that look alike come from different tables or passages of the source.

Experiments:
MetRS (C. parvum) = MetRS (C. parvum) (Cryptosporidium parvum, UniProt Q5CVN0); experiment: MetRS (C. parvum) enzyme inhibition; format: biochemical
T. cruzi = T. cruzi growth inhibition; format: cell-based, Trypanosoma cruzi; conditions: Trypanosoma cruzi; read-out: (E) T. cruzi EC50
MetRS (T. brucei) = target: T1, MetRS (T. brucei) (Trypanosoma brucei brucei, UniProt Q38C91); experiment: MetRS (T. brucei) enzyme inhibition; format: biochemical
T1 sequence (Q38C91 1-773): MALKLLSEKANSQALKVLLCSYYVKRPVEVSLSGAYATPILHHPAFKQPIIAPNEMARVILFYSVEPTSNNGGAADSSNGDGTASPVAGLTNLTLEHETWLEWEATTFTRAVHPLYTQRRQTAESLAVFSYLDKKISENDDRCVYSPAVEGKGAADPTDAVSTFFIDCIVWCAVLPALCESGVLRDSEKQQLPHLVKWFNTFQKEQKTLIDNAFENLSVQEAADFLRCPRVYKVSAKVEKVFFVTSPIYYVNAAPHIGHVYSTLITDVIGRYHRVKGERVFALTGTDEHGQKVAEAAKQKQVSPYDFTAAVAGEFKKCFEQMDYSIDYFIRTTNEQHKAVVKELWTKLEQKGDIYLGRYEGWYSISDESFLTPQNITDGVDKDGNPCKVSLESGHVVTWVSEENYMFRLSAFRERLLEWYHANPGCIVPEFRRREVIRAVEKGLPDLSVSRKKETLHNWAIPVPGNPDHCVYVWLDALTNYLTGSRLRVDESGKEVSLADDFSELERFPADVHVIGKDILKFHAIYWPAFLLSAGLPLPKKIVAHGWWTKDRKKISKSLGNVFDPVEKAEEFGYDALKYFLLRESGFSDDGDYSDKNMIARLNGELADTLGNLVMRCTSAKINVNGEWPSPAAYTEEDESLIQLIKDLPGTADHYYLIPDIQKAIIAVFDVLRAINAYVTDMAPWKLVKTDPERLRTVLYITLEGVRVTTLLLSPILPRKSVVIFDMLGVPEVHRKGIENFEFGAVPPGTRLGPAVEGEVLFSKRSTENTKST

[1] = tested on: S. aureus MSSA (ATCC 29213); experiment: MIC susceptibility testing; format: cell-based, Staphylococcus aureus; conditions: Staphylococcus aureus, S. aureus ATCC 29213; read-out: (F) S. aureus (ATCC 29213) MIC
Description: Media and culture conditions. Mueller Hinton broth (MHB), cation adjusted Mueller Hinton broth (CA-MHB), and Brain Heart Infusion broth (BHI) were purchased from Becton Dickinson (Franklin Lakes, N.J.). Tryptic soy agar (TSA) plates, TSA with 5% sheep blood plates, and CA-MHB with 3% laked horse blood were purchased from Remel (San Diego, Calif.). MHB was used to assay all Staphylococcus aureus strains. CA-MHB was used for Staphylococcus epidermidis, Enterococcus faecalis, Enterococcus faecium, Escherichia coli, and Pseudomonas aeruginosa. CA-MHB supplemented with 3% laked horse blood was used for Streptococcus pneumoniae and Streptococcus pyogenes. Staphylococcus, Enterococcus, Escherichia, and Pseudomonas strains were cultured at 37° C. with ambient air. Streptococcus strains were cultured in 37° C. with 5% CO2. Separate conditions for radiolabeled precursor uptake assays are described below.
Susceptibility testing: Minimum inhibitory concentration (MIC) determinations were performed in triplicate in 96-well round bottom microtiter plates (Corning, Corning N.Y.) as described by the Clinical and Laboratory Standards Institute (CLSI). Serial two-fold dilutions of compounds were added to plates in 50 μL volumes. An additional 50 μL of media containing bacterial cells (1×10^6 CFUs/mL) was then added to each well. Maximum DMSO concentrations were 0.5%. Plates were incubated at 37° C. for at least 18 h before reading the susceptibility result by optical absorbance (OD600) using a BioTek ELx800. The lowest concentration causing ≥90% growth inhibition compared to the untreated control was recorded as the MIC (and also corresponded to the visual MIC). MICs were measured at least twice and the higher value (if different) was recorded herein.

C. parvum = C. parvum growth inhibition; format: cell-based, Cryptosporidium parvum; conditions: read-out: (J) C. parvum EC50
T. brucei = T. brucei growth inhibition; format: cell-based, Trypanosoma brucei; conditions: read-out: (D) T. brucei EC50
[2] = read-out: (C) MetRS (C. parvum) IC50

Chain of MetRS (C. parvum) (Q5CVN0 entry or part of it): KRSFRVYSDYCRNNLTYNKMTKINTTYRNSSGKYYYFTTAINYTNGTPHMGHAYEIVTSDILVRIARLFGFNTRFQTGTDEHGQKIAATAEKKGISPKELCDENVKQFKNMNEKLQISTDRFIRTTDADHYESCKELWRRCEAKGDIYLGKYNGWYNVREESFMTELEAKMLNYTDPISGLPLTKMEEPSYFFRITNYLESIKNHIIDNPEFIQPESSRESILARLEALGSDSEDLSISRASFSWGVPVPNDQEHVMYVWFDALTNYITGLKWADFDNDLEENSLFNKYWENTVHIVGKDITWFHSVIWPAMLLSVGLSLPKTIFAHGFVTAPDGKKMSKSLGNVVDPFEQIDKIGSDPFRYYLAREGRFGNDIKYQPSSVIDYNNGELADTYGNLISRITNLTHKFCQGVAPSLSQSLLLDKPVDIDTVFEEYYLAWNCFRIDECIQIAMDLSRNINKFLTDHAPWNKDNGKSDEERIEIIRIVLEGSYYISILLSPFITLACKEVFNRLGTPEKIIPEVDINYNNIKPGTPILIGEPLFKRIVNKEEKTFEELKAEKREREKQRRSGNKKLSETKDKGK

Compound | IC50 (MetRS (C. parvum); [2]) | EC50 (T. cruzi) | IC50 (MetRS (T. brucei)) | MIC [1] | EC50 (C. parvum; Cryptosporidium parvum) | EC50 (T. brucei; Trypanosoma brucei) | EC50 (T. brucei) | EC50 (C. parvum) | IC50 (MetRS (C. parvum))
O=c1n(Cc2nc3ccc(F)nc3[nH]2)cc(Cc2ccc(Cl)cc2Cl)n1C1CCCCC1 [Compound 2071, 3-cyclohexyl-4-[(2,4-dichlorophenyl)methyl]-1-({5-fluoro-1H-imidazo[4,5-b]pyridin-2-yl}methyl)-2,3-dihydro-1H-imidazol-2-one] | < 40 nM | 526 nM | < 40 nM | > 2.5 µg/mL | > 2000 nM | – | – | – | –
C#CCn1c(Cc2ccc(Cl)cc2Cl)cn(Cc2nc3ccc(F)nc3[nH]2)c1=O [Compound 2085, 4-[(2,4-dichlorophenyl)methyl]-1-({5-fluoro-1H-imidazo[4,5-b]pyridin-2-yl}methyl)-3-(prop-2-yn-1-yl)-2,3-dihydro-1H-imidazol-2-one] | < 40 nM | 514 nM | < 40 nM | 1.71 µg/mL (≈ 3.97 µM) | 834 nM | 4.56 nM | 9.03 nM | 683 nM | –
COc1ccc(-c2cnn3c2CN(Cc2nc4nc(F)ccc4[nH]2)CC3)c(Cl)c1 [Compound 2170, 2-((3-(2-chloro-4-methoxyphenyl)-6,7-dihydropyrazolo[1,5-a]pyrazin-5(4H)-yl)methyl)-5-fluoro-1H-imidazo[4,5-b]pyridine] | < 40 nM | 1330 nM | < 40 nM | – | 1780 nM | 64.5 nM | – | – | –
COc1ccc(-c2ccc(NC(C)=O)c3nc(Cc4nc5nc(F)ccc5[nH]4)cn23)c(Cl)c1 [Compound 2183, N-[5-(2-chloro-4-methoxyphenyl)-2-({5-fluoro-1H-imidazo[4,5-b]pyridin-2-yl}methyl)imidazo[1,2-a]pyridin-8-yl]acetamide] | < 40 nM | 116 nM | < 40 nM | 0.245 µg/mL (≈ 0.527 µM) | 629 nM | – | – | – | –
Clc1ccc(Cc2cn(Cc3nc4cc(Cl)ccc4[nH]3)cn2)c(Cl)c1 [Compound 2192, 6-chlor0-2-({4-[(2,4-dichlorophenyl)-methyl]-1H-imidazol-1-yl}methyl)-1H-1,3-benzodiazole] | – | 516 nM | < 40 nM | – | > 2000 nM | 85.2 nM | – | – | 114 nM
COc1ccc(Cc2cn(Cc3nc4nc(Cl)ccc4[nH]3)c(=O)n2CC(C)(C)NC(C)=O)c(Cl)c1 [Compound 2209, N-{1-[3-({5-chloro-1H-imidazo[4,5-b]pyridin-2-yl}methyl)-5-[(2-chloro-4-methoxyphenyl)methyl]-2-oxo-2,3-dihydro-1H-imidazol-1-yl]-2-methylpropan-2-yl}acetamide] | – | 4620 nM | 380 nM and 781 nM | – | > 2000 nM | – | – | – | –
NCCn1c(Cc2ccc(Cl)cc2Cl)cn(Cc2nc3ccc(Cl)nc3[nH]2)c1=O [Compound 2214, 3-(2-aminoethyl)-1-((5-chloro-3H-imidazo[4,5-b]pyridin-2-yl)methyl)-4-(2,4-dichlorobenzyl)-1,3-dihydro-2H-imidazol-2-one] | 74.5 nM | 367 nM | < 40 nM | > 2.5 µg/mL | > 2000 nM | 3.73 nM | – | – | –
O=C(O)Cn1c(C(=O)c2ccc(Cl)cc2Cl)cn(Cc2nc3ccc(Cl)nc3[nH]2)c1=O [Compound 2216, 2-[3-({5-chloro-1H-imidazo[4,5-b]pyridin-2-yl}methyl)-5-(2,4-dichlorobenzoyl)-2-oxo-2,3-dihydro-1H-imidazol-1-yl]acetic acid] | 53.2 nM | > 5000 nM | < 40 nM | – | > 2000 nM | 287 nM | – | – | –
O=c1n(Cc2nc3c(F)c(F)ccc3[nH]2)cc(Cc2ccc(Cl)cc2Cl)n1CC1CCNCC1(F)F (centres unmarked) [Compound 2264, 5-(2,4-dichlorobenzyl)-3-((4,5-difluoro-1H-benzo[d]imidazol-2-yl)methyl)-1-((3,3-difluoropiperidin-4-yl)methyl)-1H-imidazol-2(3H)-one] | – | 133 nM | – | 1.22 µg/mL (≈ 2.25 µM) | > 2000 nM | 39.9 nM | 73.1 nM | – | –
